Test results published in US10954260B2, “Cymanquine compounds and derivatives thereof and uses thereof” (UNIVERSITY OF VERMONT AND STATE AGRICULTURAL COLLEGE, priority 2015, dated 2021).
“Also recorded” adds a separate entry of the source.

Tests used:
autophagy = details: low pH media, and bulky tumors in vivo; Pellegrini et al.; cited from earlier work
LC3-II = experiment: Western blotting for LC3 isoforms in SB1A cells; assay type: cell-based, human; details: 24 h
Procedure: (§1) FIG. 10. Evidence of lysosomal accumulation and cytotoxicity obtained through autophagy blockade by Cymanquine. A, SB1A cells were treated with various concentrations of Cymanquine or CQ for 24 h prior to western blotting for LC3 isoforms 1 and 2 (LC3-I and II—see text), respectively. […] B, SB1A cells stably expressing EGFP-LC3 were treated with indicated concentrations of CQ and Cymanquine for 4 h prior to fluorescence microscopy evaluation of EGFP-LC3 sub-cellular deposition. C-E, SB1A were treated with various concentrations of Cymanquine or CQ for 24 h prior to simultaneous staining with NBD-PZ and propidium iodide and analysis by flow cytometry. C, Live cells, sorted based on absence of propidium iodide staining (left panel, pentagonal gate) were analyzed for NBD-PZ staining, indicative of lysosomal content. B,C, The dose-response of Cymanquine and CQ on B, percentage of live cells (negative for propidium iodide staining), and C, NBD-PZ median fluorescence intensity of live cells. […]
(§2) Experiments aimed at elucidating the mechanism of action of Cymanquine were conducted. […] Preliminary quantitation of Cymanquine and CQ from isolated lysosomes of cells treated with equimolar quantities of either drug have been encouraging, showing a 60-fold higher accumulation of Cymanquine compared to CQ, as measured by HPLC-MS/MS.

[1] = system: isolated lysosomes of cells; experiment: Quantitation of drug from isolated lysosomes by HPLC-MS/MS; assay type: cell-based; details: preliminary, cells treated with equimolar quantities of either drug
Procedure: Experiments aimed at elucidating the mechanism of action of Cymanquine were conducted. […] It is known that the blockade of autophagy results in the accumulation of neutralized lysosomes and of proteins normally cleared by autophagic flux. FIG. 10 presents data that support a mechanism of action for Cymanquine as a weak base lysosomotropic autophagy inhibitor. […] The lysosomotropic fluorophore, NBD-PZ, was employed in conjunction with propidium iodide (PI) to simultaneously measure lysosomal accumulation, neutralization, and cell viability by flow cytometry on CQ and Cym treated SB1A cells (FIG. 10C-E). […] Furthermore, at the highest concentration of Cymanquine tested, NBD-PZ staining is reduced, due to either lysosome loss, or neutralization, as emission of this fluorophore is highly dependent upon pH. Preliminary quantitation of Cymanquine and CQ from isolated lysosomes of cells treated with equimolar quantities of either drug have been encouraging, showing a 60-fold higher accumulation of Cymanquine compared to CQ, as measured by HPLC-MS/MS.

RWPE-1 = experiment: Cytotoxicity assay (MTS cell viability, 72 h) in normal prostate epithelial cells; assay type: cell-based, human; details: normal pH
Procedure: (§3) Materials and Methods. Cell lines and reagents. Human cancer cell lines ACHN (kidney adenocarcinoma), BxPC3 (pancreatic adenocarcinoma), DU145 (prostate carcinoma), HT29 (colorectal adenocarcinoma), Jurkat (T-cell lymphoma), LNCaP (androgen sensitive prostate adenocarcinoma), PC3 (androgen insensitive prostate adenocarcinoma), SB1A (melanoma), and T47D (breast infiltrating ductal carcinoma) were cultured RPMI 1640 (Mediatech, Inc., Manassas, Va.) supplemented with 10% fetal bovine serum, 1% penicillin/streptomycin/amphotericin B solution, 1 mM sodium pyruvate, 1% MEM non-essential amino acid solution, and 2 mM L-glutamine at 37° C. in a 5% CO2, humidified incubator. All supplements were purchased from HyClone™ (Logan, Utah). […] The resulting pH was measured to be 6.72±0.06 in the absence of cells. […]
(§4) Cytotoxicity assay. […] Viability was measured by the CellTiter 96 AQueous Non-Radioactive Cell Proliferation Assay (Promega, Madison, Wis.) according to manufacturer's instruction. Briefly, 20 μL of MTS/PMS reagent was added to each tissue culture well, and incubated at 37° C. for a minimum of 2 hours, or until the maximum absorbance at 490 nm on the plate (wells with highest cell numbers) reached a value greater than 0.6. Absorbance was measured on a Perkin-Elmer Victor X4 multi-label plate reader. […]

[2] = system: panel of human cancer cell lines; experiment: Cytotoxicity assay (MTS cell viability, 72 h); assay type: cell-based
Procedure: as §3, §4

SB1A cells = experiment: Flow cytometry with NBD-PZ and propidium iodide staining; assay type: cell-based, human; details: 24 h
Procedure: FIG. 10. […] C, Live cells, sorted based on absence of propidium iodide staining (left panel, pentagonal gate) were analyzed for NBD-PZ staining, indicative of lysosomal content. […] Data in B,C presented as mean+/−SEM (n=3). *P<0.05, **P<0.001 by student's t-test.
Experiments aimed at elucidating the mechanism of action of Cymanquine were conducted. […] It is known that the blockade of autophagy results in the accumulation of neutralized lysosomes and of proteins normally cleared by autophagic flux.

[3] = Cyclic voltammetry, anodic oxidation potentials; assay type: physicochemical; details: dichloromethane/0.05 M [NBu4][B(C6F5)4]
Procedure: Electrochemical studies were carried out. The electrolyte solution used for these studies, namely dichloromethane with 0.05 M [NBu4][B(C6F5)4] as the supporting electrolyte, is known to provide an optimum medium for the electrochemical oxidation of compounds containing the MnCp(CO)3 (Cp=η^5-C5H5) backbone (Laws et al., J. Am. Chem. Soc. 2008, 130, 9859). The potentials given here are referred to the ferrocene/ferrocenium reference couple. The experiments were carried out in a controlled atmosphere which minimizes exposure to oxygen and water. We refer to two types of standard electrochemical techniques that are commonly described in books on electrochemistry: cyclic voltammetry and bulk electrolysis (Bard, A. J.; Faulkner, L. R. Electrochemical Methods, John Wiley & Sons, New York, 2001, second edition) The former is useful for the analytical and gross mechanistic aspects of the electron-transfer properties of a compound, whereas the latter is most often employed for the electro-synthetic function of making isolable quantities of electrochemical oxidation or reduction products.
Anodic oxidation of the three compounds was investigated. […]
Table of potentials (vs ferrocene/ferrocenium (FcH)) measured by cyclic voltammetry for oxidation of compounds 3, 4, and 5 in dichloromethane/0.05 M [NBu4][B(C6F5)4]. […]

[4] = system: EGFP-LC3 fusion protein in SB1A cells; experiment: Fluorescence microscopy of EGFP-LC3 sub-cellular distribution; assay type: cell-based, human; details: SB1A stably expressing EGFP-LC3, 4 h
Procedure: as §1, §2

Row | Molecule | anti-autophagic efficacy (autophagy) | cell death at the highest concentrations tested (LC3-II) | accumulation of autophagy marker LC3-II (LC3-II; western blot) | accumulation in lysosomes compared to CQ [1] [fold] | relative sensitivity of RWPE-1 compared to transformed cell lines (RWPE-1) | cytotoxicity compared to CQ ([2]; low-pH (PIPES-supplemented) media) | cytotoxicity compared to CQ ([2]; normal pH growth conditions, listed as CMQ) | NBD-PZ staining (SB1A cells; highest concentration tested) | cytotoxicity (percentage of live cells, propidium iodide) (SB1A cells; low micromolar exposures) | lysosome content (NBD-PZ staining of live cells) (SB1A cells; low micromolar exposures) | Ep(1) ([3]; first oxidation, anodic peak potential, irreversible) [V vs FcH] | E1/2(2) or Ep(2) ([3]; second oxidation, given as Ep (irreversible)) [V vs FcH] | subcellular distribution of EGFP-LC3 [4]
1 | CCN(CC)CCCC(C)Nc1ccnc2cc(Cl)ccc12 (stereo not shown) [CQ, Chloroquine] | poor anti-autophagic efficacy |  |  |  |  |  |  |  |  |  |  |  | 
2 | cymanquine [Compound 3] |  | extensive cell death | dose-responsive accumulation | 60 | most resistant | more potent cytotoxicity than CQ | more potent cytotoxicity than CQ; also recorded: more potent single-agent cytotoxic properties than CQ | reduced | significant cytotoxicity | marked accumulation of lysosomes | 0.82 | 1.25 | punctate EGFP-LC3 emission patterns
